Assays:
Type in all cases: in vivo
Zea mays = assay: Test Example 4: effect on crop by application to foliage (diluvial soil, plastic box); settings: Application herbicide amount 320 g/ha; foliage application
Method in brief: (§1)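 Scores run from 0 (herbicidal ratio ≤5%) to 5 (≥90%, almost fully withered) and were assessed three weeks after foliar spraying. Seedlings had been raised for 14 days at 25-30° C in sterilized diluvial soil before treatment, with the emulsion diluted in water to the stated g/ha dose.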

Triticum aestivum = assay: as above; settings: Application herbicide amount 320 g/ha; foliage application
Method in brief: as §1

[1] = tested on: Beta vulgaris ssp. vulgaris; assay: as above; settings: Application herbicide amount 320 g/ha; foliage application
Method in brief: as §1

Brassica campestris L. = assay: as above; settings: Application herbicide amount 320 g/ha; foliage application
Method in brief: as §1

Glycine max = assay: as above; settings: Application herbicide amount 320 g/ha; foliage application
Method in brief: as §1

Setaria viridis = assay: Test Example 4: herbicidal effect by application to foliage (diluvial soil, plastic box); settings: Application herbicide amount 320 g/ha; foliage application
Method in brief: as §1

Amaranthus retroflexus = assay: as above; settings: Application herbicide amount 320 g/ha; foliage application
Method in brief: as §1

Alopecurus myosuroides = assay: as above; settings: Application herbicide amount 320 g/ha; foliage application
Method in brief: as §1

Chenopodium album = assay: as above; settings: Application herbicide amount 320 g/ha; foliage application
Method in brief: as §1

Avena fatua = assay: as above; settings: Application herbicide amount 320 g/ha; foliage application
Method in brief: as §1

Digitaria ciliaris = assay: as above; settings: Application herbicide amount 320 g/ha; foliage application
Method in brief: as §1

Apera spica-venti. = assay: as above; settings: Application herbicide amount 320 g/ha; foliage application
Method in brief: as §1

Stellaria media = assay: as above; settings: Application herbicide amount 320 g/ha; foliage application
Method in brief: as §1

Lolium multiflorum Lam. = assay: as above; settings: Application herbicide amount 320 g/ha; foliage application
Method in brief: as §1

Galium spurium = assay: as above; settings: Application herbicide amount 320 g/ha; foliage application
Method in brief: as §1

[2] = tested on: Echinochloa crus-galli var. crus-galli; assay: as above; settings: Application herbicide amount 320 g/ha; foliage application
Method in brief: as §1

Abutilon theophrasti = assay: as above; settings: Application herbicide amount 320 g/ha; foliage application
Method in brief: as §1

Veronica persica = assay: as above; settings: Application herbicide amount 320 g/ha; foliage application
Method in brief: as §1

[3] = tested on: directly sowed Oryza sativa; assay: Test Example 3: effect on crop by application to foliage (Wagner pot, water depth 0.1-0.5 cm); settings: Nineteenth Table; application to foliage; application herbicide amount 320 g/ha
Method in brief: (§2)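 Alluvial soil in 1/10000 are Wagner pots, sown and grown 14 days in a 25–30 °C greenhouse. An emulsifiable concentrate diluted in water to the set dose (g/ha) was sprayed on stems and leaves. Effect scored three weeks later on a 0–5 scale: 5 = ≥90% herbicidal ratio, 0 = ≤5%.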

Leptochloa chinensis = assay: Test Example 3: herbicidal effect by application to foliage (Wagner pot, water depth 0.1-0.5 cm); settings: Nineteenth Table; application to foliage; application herbicide amount 320 g/ha
Method in brief: as §2

Cyperus difformis = assay: as above; settings: Nineteenth Table; application to foliage; application herbicide amount 320 g/ha
Method in brief: as §2

[4] = tested on: Echinochloa crus-galli var. crus-galli; assay: as above; settings: Nineteenth Table; application to foliage; application herbicide amount 320 g/ha
Method in brief: as §2

Row | SMILES | c (Zea mays) effect on crop grade (Zea mays) | e (Triticum aestivum) effect on crop grade (Triticum aestivum) | f (Beta vulgaris ssp. vulgaris) effect on crop grade [1] | g (Brassica campestris L.) effect on crop grade (Brassica campestris L.) | d (Glycine max) effect on crop grade (Glycine max) | G (Setaria viridis) herbicidal effect grade (Setaria viridis) | N (Amaranthus retroflexus) herbicidal effect grade (Amaranthus retroflexus) | J (Alopecurus myosuroides) herbicidal effect grade (Alopecurus myosuroides) | O (Chenopodium album) herbicidal effect grade (Chenopodium album) | I (Avena fatua) herbicidal effect grade (Avena fatua) | F (Digitaria ciliaris) herbicidal effect grade (Digitaria ciliaris) | L (Apera spica-venti.) herbicidal effect grade (Apera spica-venti.) | P (Stellaria media) herbicidal effect grade (Stellaria media) | K (Lolium multiflorum Lam.) herbicidal effect grade (Lolium multiflorum Lam.) | Q (Galium spurium) herbicidal effect grade (Galium spurium) | H (Echinochloa crus-galli var. crus-galli) herbicidal effect grade [2] | M (Abutilon theophrasti) herbicidal effect grade (Abutilon theophrasti) | R (Veronica persica) herbicidal effect grade (Veronica persica) | b (effect on crop grade) [3] | D (herbicidal effect grade) (Leptochloa chinensis) | other results
1 | Cc1nnc(NC(=O)c2ccc(C(F)(F)F)n3c(N(C)C4CCCCC4)nnc23)o1 [1-133] | 0 (Herbicidal ratio of 5% or less (almost no effect)) | 0 (Herbicidal ratio of 5% or less (almost no effect)) | 3 (Herbicidal ratio of 40% or more and less than 70%) | 0 (Herbicidal ratio of 5% or less (almost no effect)) | 3 (Herbicidal ratio of 40% or more and less than 70%) | 0 (Herbicidal ratio of 5% or less (almost no effect)) | 3 (Herbicidal ratio of 40% or more and less than 70%) | 0 (Herbicidal ratio of 5% or less (almost no effect)) | 4 (Herbicidal ratio of 70% or more and less than 90%) | 0 (Herbicidal ratio of 5% or less (almost no effect)) | 3 (Herbicidal ratio of 40% or more and less than 70%) | 0 (Herbicidal ratio of 5% or less (almost no effect)) | 4 (Herbicidal ratio of 70% or more and less than 90%) | 0 (Herbicidal ratio of 5% or less (almost no effect)) | 1 (Herbicidal ratio of 5% or more and less than 20%) | 4 (Herbicidal ratio of 70% or more and less than 90%) | 3 (Herbicidal ratio of 40% or more and less than 70%) | 2 (Herbicidal ratio of 20% or more and less than 40%) | 0 (Herbicidal ratio of 5% or less (almost no effect)) | 2 (Herbicidal ratio of 20% or more and less than 40%) | E (herbicidal effect grade) (Cyperus difformis): 0 (Herbicidal ratio of 5% or less (almost no effect)); H (herbicidal effect grade) [4]: 4 (Herbicidal ratio of 70% or more and less than 90%)
2 | CCN(C)c1nnc2c(C(=O)Nc3nnc(C)o3)ccc(C(F)(F)F)n12 [1-134] | 0 (Herbicidal ratio of 5% or less (almost no effect)) | 1 (Herbicidal ratio of 5% or more and less than 20%) | 5 (Herbicidal ratio of 90% or more (almost completely withered)) | 4 (Herbicidal ratio of 70% or more and less than 90%) | 3 (Herbicidal ratio of 40% or more and less than 70%) | 3 (Herbicidal ratio of 40% or more and less than 70%) | 3 (Herbicidal ratio of 40% or more and less than 70%) | 1 (Herbicidal ratio of 5% or more and less than 20%) | 5 (Herbicidal ratio of 90% or more (almost completely withered)) | 0 (Herbicidal ratio of 5% or less (almost no effect)) | 4 (Herbicidal ratio of 70% or more and less than 90%) | 1 (Herbicidal ratio of 5% or more and less than 20%) | 4 (Herbicidal ratio of 70% or more and less than 90%) | 1 (Herbicidal ratio of 5% or more and less than 20%) | 3 (Herbicidal ratio of 40% or more and less than 70%) | 5 (Herbicidal ratio of 90% or more (almost completely withered)) | 4 (Herbicidal ratio of 70% or more and less than 90%) | 4 (Herbicidal ratio of 70% or more and less than 90%) | 2 (Herbicidal ratio of 20% or more and less than 40%) | 4 (Herbicidal ratio of 70% or more and less than 90%) | E (herbicidal effect grade) (Cyperus difformis): 2 (Herbicidal ratio of 20% or more and less than 40%); H (herbicidal effect grade) [4]: 5 (Herbicidal ratio of 90% or more (almost completely withered))
3 | CCN(CC)c1nnc2c(C(=O)Nc3nnc(C)o3)ccc(C(F)(F)F)n12 [1-135] | 0 (Herbicidal ratio of 5% or less (almost no effect)) | 0 (Herbicidal ratio of 5% or less (almost no effect)) | 4 (Herbicidal ratio of 70% or more and less than 90%) | 0 (Herbicidal ratio of 5% or less (almost no effect)) | 3 (Herbicidal ratio of 40% or more and less than 70%) | 3 (Herbicidal ratio of 40% or more and less than 70%) | 3 (Herbicidal ratio of 40% or more and less than 70%) | 1 (Herbicidal ratio of 5% or more and less than 20%) | 5 (Herbicidal ratio of 90% or more (almost completely withered)) | 1 (Herbicidal ratio of 5% or more and less than 20%) | 4 (Herbicidal ratio of 70% or more and less than 90%) | 1 (Herbicidal ratio of 5% or more and less than 20%) | 4 (Herbicidal ratio of 70% or more and less than 90%) | 1 (Herbicidal ratio of 5% or more and less than 20%) | 0 (Herbicidal ratio of 5% or less (almost no effect)) | 4 (Herbicidal ratio of 70% or more and less than 90%) | 3 (Herbicidal ratio of 40% or more and less than 70%) | 1 (Herbicidal ratio of 5% or more and less than 20%) | 1 (Herbicidal ratio of 5% or more and less than 20%) | 4 (Herbicidal ratio of 70% or more and less than 90%) | E (herbicidal effect grade) (Cyperus difformis): 2 (Herbicidal ratio of 20% or more and less than 40%); H (herbicidal effect grade) [4]: 5 (Herbicidal ratio of 90% or more (almost completely withered))
4 | Cc1nnc(NC(=O)c2ccc(C(F)(F)F)n3c(N4CCCC4)nnc23)o1 [1-136] | 1 (Herbicidal ratio of 5% or more and less than 20%) | 0 (Herbicidal ratio of 5% or less (almost no effect)) | 4 (Herbicidal ratio of 70% or more and less than 90%) | 0 (Herbicidal ratio of 5% or less (almost no effect)) | 3 (Herbicidal ratio of 40% or more and less than 70%) | 2 (Herbicidal ratio of 20% or more and less than 40%) | 2 (Herbicidal ratio of 20% or more and less than 40%) | 0 (Herbicidal ratio of 5% or less (almost no effect)) | 5 (Herbicidal ratio of 90% or more (almost completely withered)) | 0 (Herbicidal ratio of 5% or less (almost no effect)) | 4 (Herbicidal ratio of 70% or more and less than 90%) | 1 (Herbicidal ratio of 5% or more and less than 20%) | 4 (Herbicidal ratio of 70% or more and less than 90%) | 0 (Herbicidal ratio of 5% or less (almost no effect)) | 0 (Herbicidal ratio of 5% or less (almost no effect)) | 4 (Herbicidal ratio of 70% or more and less than 90%) | 3 (Herbicidal ratio of 40% or more and less than 70%) | 3 (Herbicidal ratio of 40% or more and less than 70%) | 2 (Herbicidal ratio of 20% or more and less than 40%) | 4 (Herbicidal ratio of 70% or more and less than 90%) | E (herbicidal effect grade) (Cyperus difformis): 0 (Herbicidal ratio of 5% or less (almost no effect)); H (herbicidal effect grade) [4]: 4 (Herbicidal ratio of 70% or more and less than 90%)
